Assay: method code SF, from DOI: 10.1016/0223-5234(90)90141-o
Details: pH 7.4

Row | logD | SMILES
1 | 0.39 | COc1cc(S(C)=O)ccc1-c1nc2cnncc2[nH]1 (stereo unspecified)
2 | 0.53 | COc1cc(S(C)=O)ccc1-c1nc2ncncc2[nH]1 (stereo unspecified)
3 | 1.23 | COc1cc(S(C)=O)ccc1-c1nc2cnccc2[nH]1 (stereo unspecified)
4 | 0.23 | COc1cc(S(C)=O)ccc1-c1nc2nnccc2[nH]1 (stereo unspecified)

The remaining lines, values behind:

Row | SMILES | logD
5 | COc1cc(S(C)=O)ccc1-c1nc2cnccc2s1 (stereo unspecified) | 2.21
6 | COc1cccc(OC)c1-c1nc2cnccc2[nH]1 | 1.66
7 | COc1cc(S(C)=O)ccc1-c1nc2cnccc2n1C (stereo unspecified) | 2.15
8 | COc1ccc(-c2nc3cnccc3n2C)c(OC)c1 | 2.66
9 | COc1ccc(-c2nc3ccncc3n2C)c(OC)c1 | 2.68
10 | COc1ccc(-c2nc3cnccc3o2)c(OC)c1 | 2.42
11 | COc1cc(S(C)=O)ccc1-c1nc2nccnc2[nH]1 (stereo unspecified) | 0.66

From the SangsterLogP compilation
